Reference: patent US20090176983A1, “Tenofovir Disoproxil Hemi-Fumaric Acid Co-Crystal” (ULTIMORPHIX TECHNOLOGIES B.V., priority 2007, published 2009)

Tests used:
[1] = Dynamic Vapour Sorption (DVS) moisture sorption isotherm; type: physicochemical; conditions: for total uptake of water vapours: DVS, 25° C., relative humidity 0% to 95% in steps of 5%, 1 h per step
Procedure: Moisture sorption isotherms were measured using a DVS-1 system of Surface Measurement Systems (London, UK). Differences in moisture uptake of various forms of a solid material indicate differences in the relative stabilities of the various solid forms for increasing relative humidity. The experiment was carried out at a constant temperature of 25° C.
A sample of about 11.5 mg of form TDFA 2:1 was spread in the DVS pan. The sample was dried at 0% RH for 7 h. Subsequently the relative humidity of the chamber was increased in steps of 5% units from 0% to 95% in order to monitor the sorption of water vapours. The samples remained in each of the steps for 1 h. Following, desorption was monitored by decreasing the relative humidity to 0% in steps of 5% units and remaining at each step for 1 h. The total uptake of water vapours was about 0.8%, which is line with the industry standard for hygroscopicity. In a similar DVS experiment using the starting material as purchased, the total vapour intake was about 4%, which is undesirable in formulation and requires additional measures.

[2] = Comparative pharmacokinetic study of TDFA 2:1 and ULT 1 (plasma tenofovir by LC-MS-MS); type: in vivo, Male wistar rats; conditions: rats, one capsule of approximately 15 mg by oral gavage; compared with fumarate salt form ULT 1; FIG. 5
From the text: The plasma samples were further worked up for analysis by LC-MS-MS for their content of tenofovir. […] The concentration of tenofovir (the active metabolite of tenofovir DF) was quantified in each sample by means of LC-MS-MS against a calibration curve. From the PK data it is concluded that the hemifumarate co-crystal of tenofovir disoproxil, TDFA 2:1 is bioequivalent to the fumarate salt of tenofovir disoproxil form ULT 1, which is a commercially available fumarate salt of tenofovir disoproxil.

[3] = summary statement, versus Gilead 1

Compound	total uptake of water vapours [1]	changes in the structure by XRPD at the end of the DVS experiment ([1]; solid material after the sorption-desorption cycle, FIG. 4)	hygroscopicity compared with known crystalline form of tenofovir DF (Gilead 1) [1, 3]	stability compared with known crystalline form of tenofovir DF (Gilead 1) [1, 3]	bioequivalence from PK data (concentration of tenofovir in plasma) [2]
co-crystal of tenofovir disoproxil and fumaric acid in a 2:1 molar ratio [TDFA 2:1]	about 0.8%	no any changes in the structure	less hygroscopic	more stable	bioequivalent
CC(C)OC(=O)OCOP(=O)(CO[C@H](C)Cn1cnc2c(N)ncnc21)OCOC(=O)OC(C)C.O=C(O)/C=C/C(=O)O [starting material, 9-[(R)-2-[[bis[[(isopropoxycarbonyl)oxy]methoxy]phosphinyl]-methoxy]propyl]adenine fumarate (1:1), reference compound]	about 4%				
